{"source": "patent US20070105874A1", "about": "“Anti-Tumor Methods Using Multi Drug Resistance Independent Synthetic HSP90 Inhibitors” (Conforma Therapeutics Corporation, priority 2005, published 2007)", "key": {"[1]": {"system": "P-gp over-expressing MES SA Dx5 and NCI/ADR-Res cells", "assay": "MTS cytotoxicity assay in P-gp over-expressing versus non-expressing cell lines", "assay_type": "cell-based", "experimental": "The cell lines were plated in 96-well plate at 10-20% confluence and treated with increasing concentrations of indicated drug from 1 nM to 10 mM. 5 days later, the surviving fraction was estimated by MTS assay.\n(§1) MTS assays measure the cytotoxicity of the compounds. […] Cells were seeded in 96 well plates at 2000 cells/well and allowed to adhere overnight in Dulbecco's modified Eagle's medium supplemented with 10% fetal bovine serum. The final culture volume was 100 μl. Viable cell number was determined by using the Celltiter 96 AQueous Non-radioactive Cell Proliferation Assay (Promega, Madison Wis.). The MTS/PMS (phenazine methosulfate) solution was mixed at a ratio of 20:1, and 20 μL was added per well to 100 μl of culture medium. After 2-4 hours, the formation of the formazan product was measured at 490 nm absorbance using a multiwell plate spectrophotometer. Background was determined by measuring the Abs 490 nm of cell culture medium and MTS-PMS in the absence of cells and was subtracted from all values. Percent viable cells was calculated as follows: % viable cells=(Abs at 490 nm treated cells/Abs at 490 nm untreated cells)×100"}, "[2]": {"system": "H295R adrenal cortical carcinoma cells", "assay": "MTS cytotoxicity assay in H295R adrenal cortical carcinoma cells", "details": "5 days", "experimental": "H295R cells were plated in 96-well plate at low confluence and were analyzed for IC50 as described in FIG. 2 with indicated compounds.\nas §1"}, "P-gp": {"target": "T1, P-gp (Homo sapiens, UniProt P08183)", "T1 construct": "adrenocortical carcinoma, a tumor that naturally expresses P-gp; endogenous in cells; host or cells: H295R adrenal cortical carcinoma cells", "assay": "Rhodamine 123 retention (P-gp efflux inhibition) in H295R cells", "assay_type": "cell-based", "details": "rhodamine 123, concentrations up to 10 mM", "experimental": "Rhodamine 123 level within cells was measured by flow cytometry as described in FIG. 9."}}, "data": [{"smiles": "CO[C@H]1/C=C\\C=C(/C)C(=O)NC2=CC(=O)C(NCCN(C)C)=C(C[C@@H](C)C[C@H](OC)[C@H](O)[C@@H](C)/C=C(\\C)[C@@H]1OC(N)=O)C2=O", "note": "[Compound 17-DMAG, (4E,6Z,8S,9S,10E,12S,13R,14S,16R)-19-(2-(dimethylamino)ethylamino)-13-hydroxy-8,14-dimethoxy-4,10,12,16-tetramethyl-3,20,22-trioxo-2-azabicyclo[16.3.1]docosa-1(21),4,6,10,18-pentaen-9-yl carbamate]", "values": [{"measurement": "P-gp substrate status", "setting": "[1]; cytotoxicity in cell lines expressing P-gp or MRP to various extent", "value": "P-gp substrates"}, {"measurement": "cytotoxic potency in adrenal cortical carcinoma", "setting": "[2]", "value": "weak"}]}, {"smiles": "COc1c(C)cnc(Cn2cc(C#CCCC(N)=O)c3c(Cl)nc(N)nc32)c1C", "note": "[Compound XI, 5-(2-amino-4-chloro-7-((4-methoxy-3,5-dimethylpyridin-2-yl)methyl)-7H-pyrrolo[2,3-d]pyrimidin-5-yl)pent-4-ynamide]", "values": [{"measurement": "increase of IC50 in P-gp+++ lines", "setting": "[1]; P-gp+++ lines", "value": "10-20 fold"}]}, {"smiles": "C=CCNC1=C2CC(C)CC(OC)C(O)C(C)/C=C(\\C)C(OC(N)=O)C(OC)/C=C\\C=C(/C)C(=O)NC(=CC1=O)C2=O", "note": "(centres unmarked) [Compound 17-AAG, (4E,6Z,10E)-19-(allylamino)-13-hydroxy-8,14-dimethoxy-4,10,12,16-tetramethyl-3,20,22-trioxo-2-azabicyclo[16.3.1]docosa-1(21),4,6,10,18-pentaen-9-yl carbamate]", "values": [{"measurement": "inhibitory effect on P-gp efflux activity", "setting": "P-gp", "value": "No inhibitory effect"}, {"measurement": "cytotoxic potency in adrenal cortical carcinoma", "setting": "[2]", "value": "more potent than CsA"}]}]}
